Measurements as given in a melting point compilation (Tetko et al.; mined from patent text by program, amines drawn as free bases though some values may be those of a salt).

melting point [°C] | SMILES
143 to 145 | CC(=O)Oc1ccccc1C(=O)Oc1nc[nH]c1C(N)=O
199 | O=c1[nH]c2cc(Cl)ccc2n1C1CCN(CCNC(c2ccc(F)cc2)c2ccc(F)cc2)CC1
116 to 119 | CC(C)N(C(N)=O)c1ccc2c(c1)OCO2
107 to 108 | Cc1nc(N2CCN(Cc3ccc(C(F)(F)F)cc3)C2=O)sc1Br
85 to 92 | CC(C)c1c(C(=O)N[C@H](C)[C@](O)(Cn2cncn2)c2ccc(F)cc2F)cnn1-c1ccc(Cl)cc1
174 to 176 | COCCCn1nnnc1-c1cc(-c2cc(C(C)C)ccc2OC)c(O)cc1O
252 to 253 | CCOc1ccc(S(=O)(=O)N(CC(=O)NN=C2C(=O)Nc3ccc([N+](=O)[O-])cc32)c2ccccc2)cc1
152 | COC(=O)C1=C(C)NN=C(C(=O)OC2CCCC2)C1c1ccccc1Cl (configuration not stated)
129 to 131 | CCN1CCC(Cc2ccc(Cl)nc2)C1=C[N+](=O)[O-] (configuration not stated)
129 to 130 | O=C(O)C(=O)c1cc(F)c(OCCOc2ccc3ccccc3c2)c(F)c1
180 | O=C(O)c1ccc(-c2cccc(O)c2)cc1
128 | COC(=O)C1(NC(=O)Cc2cc(-c3ccc(Cl)cc3)ccc2Cl)CCC(C)(C)CC1
155 to 157 | CCOC(=O)C1=C(C)NC(SCc2ccc(OC)cc2)=NC1c1cccc([N+](=O)[O-])c1Cl (configuration not stated)
123 to 124 | COCCNC(N)=Nc1nc(-c2cccc(CNC(C)=O)c2)cs1
315 to 318 | CC1(C)C(=O)Nc2cc3[nH]c(C4CCCCC4)nc3cc21
92 to 93 | CC(C)(C)c1cc(P(c2ccccc2)c2ccccc2)cc(C(C)(C)C)c1O
150 to 151 | CCOC(=O)CN1C(=O)Nc2cccc(OC)c2C1C (configuration not stated)
107 to 108 | CN(O)C(=O)c1ccc(NCCCc2ccccc2)cc1
219 to 224 | CCNC(=O)c1ccc(N2CCN(Cc3cc4c(c(OC(F)F)c3)OC(C)C(=O)N4)CC2)cc1 (configuration not stated)
172 to 173 | COc1ccc(C(=O)Oc2ccc(C(=O)O)cc2C(=O)O)cc1C12CC3CC(CC(C3)C1)C2
81 to 82 | COc1ccc(/C=N/N2CCCCC2)cc1OC1CCCC1
141 | CC(=O)N1CS(=O)c2c1cc(C)cc2[N+](=O)[O-] (configuration not stated)
162 to 164 | CCOc1c(C(=O)O)sc2ccc(OC)cc12

melting point [°C] | SMILES
77 to 79 | O[C@@H](COc1cccc(-c2noc3ccsc23)c1)CN1CCN(c2ccccc2C(F)(F)F)CC1
75 to 75.7 | CCOC(=O)c1ccc(OCc2nc(C)c(C)nc2C)cc1
245 to 248 | CCCS(=O)(=O)Nc1cccc(C)c1C(N)c1cccn2c(C)c(C)nc12 (configuration not stated)
138 to 139 | CC(C)(C)OC(=O)N(C(=O)OC(C)(C)C)C(=O)c1cc2cc(Br)ccc2o1
238 | Oc1ccc(Sc2nnc3cc(Cl)ccc3n2)cc1
261 to 262 | CCCn1c(=O)c2c(nn3cc(-c4ccccc4)[nH]c23)n(Cc2ccccc2)c1=O
108 | C=CCOC(=O)c1c(C)nc2c(cnn2Cc2ccccc2)c1N
160 to 162 | Cc1cc(Oc2ccc3nc(COc4ccc(CC5SC(=O)NC5=O)cc4)n(C)c3c2)cc(C)c1NC(=S)Nc1ccc(Cl)cc1 (configuration not stated)
197 to 199 | CCOC(=O)NNc1nc2ccc(-n3ccnc3)cc2n(OCc2ccccc2)c1=O
126 to 130 | N[C@@H]1CCC(=O)N[C@@H]1c1cccc(OC(F)(F)F)c1 (relative stereo)
146 to 148 | O=c1ccc(Br)cn1CC1(O)CCN(Cc2ccccc2)CC1
82 to 84 | CC(C)(C)C(=O)Nc1nc(OCCCCOCc2ccccc2)ccc1C=O
51 to 52 | Cc1nc(Br)cnc1N
230 to 231 | FC(F)C(F)(F)Sc1nc2c3ccccc3c3ccccc3c2[nH]1
211 to 213 | COc1c(N2CC3CCC3(NC(=O)OC(C)(C)C)C2)c(F)cc2c(=O)c(C(=O)O)cn(C3CC3)c12 (configuration not stated)
100 to 103 | COC(=O)c1c(NCC(C)C)n[nH]c1C
> 200 | Cc1cccc(C(=O)O)c1N(C)S(=O)(=O)c1ccc(OCCCCNC(=O)c2cc3ccccc3o2)cc1
160 to 162 | N#Cc1cc(N2C(=O)C3=C(CCCC3)C2=O)c(F)cc1Cl
271 to 273 | CCOc1ccc(-c2nc(-c3cc(CNC)c(O)c(C(=O)O)c3)cs2)cc1OCC
122 to 124 | COc1ccc(CNc2ncccc2C(=O)Nc2cccnc2Cl)cc1
62 to 65 | O=C(Nc1ccc(C(F)(F)F)cc1)Nc1ccc(S(=O)(=O)NCCN2CCOCC2)cc1
123 | O=C(O)CC1Cc2cccc3cccc1c23 (configuration not stated)
151 to 158 | CC1(c2ccccc2)CN(C(=O)Nc2ccc(Cl)cc2)N=C1c1ccc(Cl)cc1 (configuration not stated)

melting point [°C] | SMILES
215 | O=C(c1nc(Cl)c(Cl)[nH]1)N1CCOCC1
222 to 224 | CN(Cc1cccc2c1CN(C1CCC(=O)NC1=O)C2=O)C(=O)CCNC(=O)OC(C)(C)C (configuration not stated)
181 to 183 | COc1cc(Br)cc(/C=C/C(=O)/C=C/c2cc(Br)cc(OC)c2)c1
303 to 306 | CC(=O)Nc1ccc(CN2C(=O)[C@H]3CCC[C@H]3N(C(=O)CN3C(=O)c4ccccc4C3=O)c3ccccc32)cc1 (relative stereo)
114 to 115 | CCOC(=O)C(=CNc1cccc(N2CCN(C)CC2)n1)C(=O)OCC
119 to 121 | CC(CNC(=O)c1ccc(-c2ccc(Cl)cc2)cc1F)c1ccc(CN2CCCC2)cc1 (configuration not stated)
220 to 222 | CCOC(=O)c1cn(C2COC2)c2cc(F)c(F)c(OCc3ccccc3)c2c1=O
133 to 140 | CC=CCn1c(C)c(C)c2cnnc(OCc3c(Cl)cccc3Cl)c21
205 to 209 | Clc1ccc2nc(-c3cccs3)c(I)n2n1
160 to 162 | OC1CCN(c2ncc(-c3cccc(Cl)c3)cn2)CC1
122 to 124 | COC(=O)c1ccccc1SCOc1ccc(Cl)cc1Cl
139 to 141 | CC1=C(C(N)=O)C(c2ccccc2)(N2CCN(c3ccc(F)cc3C)CC2)NO1 (configuration not stated)
95 to 97 | CCOc1ccc(C(c2ccc(C(C)(C)C)cc2)C(CC)[N+](=O)[O-])cc1 (configuration not stated)
144 to 146 | Cn1c(C(F)(F)F)cc(=O)n(-c2c(F)cc(Cl)c3nc(C(Br)Br)oc23)c1=O
208 to 225 | CCNC(=O)c1ccc(N2CCN(Cc3cc4c(c(OC)c3)OCC(=O)N4)CC2)c(C)c1
44 to 47 | COCCOCCOc1ccc(C=O)cc1
157 to 158 | NC(=O)Cc1ccc2ccn(C3CCN(CCc4ccc(F)cc4F)CC3)c2c1
275 to 276 | O=C1N[C@@H](Cc2ccccc2)C(=O)N/C1=C\c1ccccc1
78 to 82 | COC(=O)OCC1OC(Oc2cc(C)cc(O)c2C(=O)CCc2ccc3occc3c2)C(O)C(O)C1O (configuration not stated)
210 to 215 | Cc1cc(NCc2ccc3oc(-c4ccccc4C#N)c(Br)c3c2)n2nccc2n1
87.5 to 89 | CC1(C)OC(C=Cc2ccccn2)=CC1=O
142 | Cc1cc(Sc2cc(C)c(O)c(C)c2)cc(C)c1O
153 to 155 | CC(C)(C)c1cc(CCC(=O)Nc2ccc(S(=O)(=O)NCCBr)cc2)cc(C(C)(C)C)c1O

melting point [°C] | SMILES
219 to 221 | CN(C)Cc1ccc2cc(NC(=O)c3ccc(-c4ccc(Cl)cc4)cc3)ccc2n1
97 to 98 | COC(=O)/C=C/c1c(O)cccc1OCCCCC(=O)OC
180 to 182 | O=C(O)COC(=O)c1c(Cl)cccc1Cl
264 to 266 | CSc1[nH]n(-c2c(Cl)cc(Cl)cc2Cl)c2nc(Cc3cccc(O)c3)nc(=O)c1-2
242 to 244 | CN1CC[C@@H](c2c(O)cc(O)c3c(=O)cc(-c4c(F)cccc4F)oc23)[C@@H]1CO
193 to 194 | O=C(Nc1ccc([N+](=O)[O-])cc1O)Nc1cc(Cl)ccc1O
187 to 188 | Cc1cc2oc(=O)c3c(c2cc1[N+](=O)[O-])CCN(CCN1CC2CCC(CC2)C1)C3
150 to 152 | COc1cc(C=O)ccc1NC(=O)OCC1c2ccccc2-c2ccccc21
108 to 112 | COc1c(C)c2c(c(OS(=O)(=O)c3ccc(C)cc3)c1CC1=C(C)C(O)CC1)C(=O)OC2 (configuration not stated)
156 to 158 | CC(c1ccccc1Cl)n1cnc2cnc3ccccc3c21 (configuration not stated)
81.5 to 82.5 | COc1ccc2oc(C(=O)OCC(C)(C)C(=O)C(C)(C)C)cc2c1
188 to 192 | O=C(NCc1ccccc1)Nc1nnc(C(=O)OCc2ccccc2)s1
135 to 138 | COc1cc(C)nc(C)c1C(=O)OC(C)c1nc2c(c(=O)n(C)c(=O)n2C)n1C (configuration not stated)
102 to 103 | Cc1c(Cl)c(Cl)c(Cl)c(Cl)c1CCl
119 to 121 | CCOc1ccc(F)cc1OCCN1C(=O)c2ccccc2C1=O
295 to 299 | CCOC(=O)c1ncc2[nH]c3c([N+](=O)[O-])cc([N+](=O)[O-])cc3c2n1
81.5 to 82 | CCOC(=O)c1cccc(-c2ccccc2C#N)c1
212 to 214 | Cc1nn(-c2ccccc2)c(-c2ccccc2)c1NC(N)=S
168 | CC(C)(C)OC(=O)N[C@H](Cc1ccccc1)C(=O)OCCCNc1cccc2c1C(=O)c1ccccc1C2=O
159 to 161 | CCOC(=O)N1C=CC(c2c(-c3ccc(F)cc3)nc3c(C)c(C)c(Cl)nn23)C=N1 (configuration not stated)
184 to 186 | CN(C)N=Nc1cc([N+](=O)[O-])sc1C(=O)O
285 to 286 | CS(=O)c1ccc(-c2cnn3c(O)ncnc23)cc1 (configuration not stated)

SMILES | melting point [°C]
CCN1CCC2(CC1)COc1cc3c(cc12)N(C(=O)c1ccc(-c2ccc(C(=O)NNC(C)=O)cc2C)cc1)CC3 | 154 to 157
O=C(O)c1cn(CC2CCCC2)c2cc(Cl)ccc12 | 181 to 184
CC(=O)C(=[N+]=[N-])C(=O)NCCO | 69 to 70
CCCCOC(=O)NC1(c2ccccc2Cl)CCCCC1=O (configuration not stated) | 130 to 132
C1=C(c2csc3ccccc23)CCN(Cc2ccccc2)C1 | 90
OC(CN1CCC(CCOC(c2ccccc2)c2ccccc2)C(O)C1)c1ccc(F)cc1 (configuration not stated) | 84 to 86
